Measurements taken from publication PMC6753081 (Nature Communications, 2019).

T1: FKBP12 (C. albicans) (Candida albicans, UniProt P28870)
T1 construct: gene RBP1; E. coli BL21(DE3), N-terminal 6xHis cut by thrombin, 15N/13C labelled, free FKBP12
T1 sequence (P28870 1-124): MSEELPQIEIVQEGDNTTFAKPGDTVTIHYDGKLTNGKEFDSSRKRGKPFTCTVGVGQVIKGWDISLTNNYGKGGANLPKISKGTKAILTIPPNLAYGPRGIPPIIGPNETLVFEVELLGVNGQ

B1: C. neoformans calcineurin regulatory subunit (CnB), residues 1-175 (natural protein)
chain: MGAAESSMFNSLEKNSNFSGPELMRLKKRFMKLDKDGSGSIDKDEFLQIPQIANNPLAHRMIAIFDEDGSGTVDFQEFVGGLSAFSSKGGRDEKLRFAFKVYDMDRDGYISNGELYLVLKQMVGNNLKDQQLQQIVDKTIMEADKDGDGKLSFEEFTQMVASTDIVKQMTLEDLF
notes: also called calcineurin B

How the values were obtained:
[1] = target: T2, A. fumigatus CN/FKBP12 complex (CnA/CnB/AfFKBP12) (Aspergillus fumigatus, UniProt Q4WDF2+Q4WLV6+Q4WUR1); conditions: ternary complex CnA/CnB-FK506-FKBP12; at the FKBP12-BBH/CnB interface, not the phosphatase active site
T2 construct: gene cnaA
T2 sequence (Q4WDF2 entry or part of it): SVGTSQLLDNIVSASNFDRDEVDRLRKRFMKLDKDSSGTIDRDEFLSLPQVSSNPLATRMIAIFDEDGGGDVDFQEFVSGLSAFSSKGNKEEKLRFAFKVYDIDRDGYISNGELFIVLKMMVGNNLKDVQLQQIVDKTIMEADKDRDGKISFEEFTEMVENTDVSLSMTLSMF
T2 sequence (Q4WUR1 2-370): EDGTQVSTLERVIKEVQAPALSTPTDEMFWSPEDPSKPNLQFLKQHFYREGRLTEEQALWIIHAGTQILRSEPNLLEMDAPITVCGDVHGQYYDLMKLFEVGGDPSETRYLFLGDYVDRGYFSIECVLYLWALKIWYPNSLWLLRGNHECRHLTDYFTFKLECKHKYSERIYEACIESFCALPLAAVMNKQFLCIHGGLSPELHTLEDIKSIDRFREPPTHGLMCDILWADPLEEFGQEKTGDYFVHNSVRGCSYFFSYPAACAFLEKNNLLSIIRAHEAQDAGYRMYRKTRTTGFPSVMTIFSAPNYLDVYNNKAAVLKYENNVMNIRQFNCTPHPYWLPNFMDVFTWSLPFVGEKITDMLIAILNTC
T2 sequence (Q4WLV6 2-112): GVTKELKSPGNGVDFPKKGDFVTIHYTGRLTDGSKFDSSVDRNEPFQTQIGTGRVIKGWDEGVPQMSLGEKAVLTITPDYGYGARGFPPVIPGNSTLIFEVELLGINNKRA

FKBP12 (C. albicans) = target: T1, FKBP12 (C. albicans); assay type: binding; conditions: pH […] °C, […] phosphate, […] NaCl
[2] = target: T3, C. neoformans calcineurin catalytic subunit (CnA), residues 34-402 (C. neoformans, UniProt O42773 34-402); experiment: crystal structure; conditions: both partners purified
T3 construct: also called calcineurin A
T3 sequence (O42773 34-402): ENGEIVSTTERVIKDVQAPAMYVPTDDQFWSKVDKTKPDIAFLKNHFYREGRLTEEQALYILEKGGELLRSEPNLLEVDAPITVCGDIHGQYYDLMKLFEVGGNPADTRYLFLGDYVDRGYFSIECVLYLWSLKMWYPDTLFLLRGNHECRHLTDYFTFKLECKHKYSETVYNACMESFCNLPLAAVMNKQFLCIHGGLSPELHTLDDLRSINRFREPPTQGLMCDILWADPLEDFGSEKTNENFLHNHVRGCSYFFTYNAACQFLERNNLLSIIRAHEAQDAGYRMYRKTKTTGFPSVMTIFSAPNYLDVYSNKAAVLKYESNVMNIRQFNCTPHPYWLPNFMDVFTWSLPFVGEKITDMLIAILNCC

Molecule	X-ray crystal structure, 2.50 Å [1]	NMR resonance assignment of apo and FK506-bound state (FKBP12 (C. albicans))	binding result [2]
C=CC[C@@H]1/C=C(\C)C[C@H](C)C[C@H](OC)[C@H]2O[C@@](O)(C(=O)C(=O)N3CCCC[C@H]3C(=O)O[C@H](/C(C)=C/[C@@H]3CC[C@@H](O)[C@H](OC)C3)[C@H](C)[C@@H](O)CC1=O)[C@H](C)C[C@@H]2OC [FK506]	A single copy of the complex was placed per asymmetric unit (PDB ID: 6TZ7)	A. fumigatus and C. albicans were determined in both the apo and FK506 bound states	–
B1	–	–	binds
